From patent US20040248809A1, “Use of antagonists of the bradykinin B2 receptor for the treatment of osteoarthrosis” (Aventis Pharma Deutschland GmbH, priority 2003, published 2004) come the findings set out here.

The experiment has as its system MMP3 expression in the chondrosarcoma cell line SW1353. In words: MMP-3 release from SW cells (MMP3 ELISA of cell culture supernatant). The conditions noted are these: for MMP-3 release MW (OD 450 nm) / Relative values based on starting value: SW cells; for Relative values based on starting value: IL1α alone = 100. The experiment is classed as cell-based. How it is done:
For the analysis of the disease-modifying action of HOE140 in a cell culture model relevant to cartilage, the MMP3 expression was analyzed in the chondrosarcoma cell line SW1353 (ATCC: HTB 94). For the experiments, SW1353 cells were cultured under standard conditions (37° C., 5% CO2) in DMEM-Glutamax with 10% of fetal calf serum (FCS) in plastic culture bottles. After detrypsinization of the cells, 50,000 cells were inoculated per well of a 96-well flat-bottom plate in medium without FCS and preincubated with the compound HOE140 in an incubator. After one hour, the cells were stimulated by addition of human IL1-β (0.1 ng/mL, Roche) in a total volume of 300 μL. After incubation for 24 hours under standard conditions, the cell culture supernatant was taken off, centrifuged for 5 minutes and frozen at −20° C. until further analysis. The MMP3 expression in the cell culture supernatants was then analyzed by means of a commercial MMP3 ELISA test system (Amersham) according to the instructions of the manufacturer. In parallel to this, a WST cytotoxicity test was carried out with the remaining cells. For this the commercial test system of Roche was used and the measurement was carried out according to the instructions of the >manufacturer's protocol. […] Bradykinin increases the MMP3 release by more than 30%.

The mark [1] stands for this setting: IL1α + bradykinin (0.1 μM) + 0.05 μM HOE140.
Setting [2] is: IL1α + bradykinin (0.1 μM) + 0.1 μM HOE140.
The mark [3] stands for this setting: IL1α + bradykinin (0.1 μM) + 0.5 μM HOE140.
Where [4] appears, read: IL1α + bradykinin (0.1 μM) + 1 μM HOE140.

In the case of “D-arginyl-L-arginyl-L-prolyl-L-prolylglycyl-3-(2-thienyl)-L-alanyl-L-seryl-(3R)-1,2,3,4-tetrahydro-3-isoquinolinecarbonyl-(2S,3aS,7aS)-octahydro-1H-indole-2-carbonyl-L-arginine [HOE140]”, where the note is “SW1353 cells, IL1 + bradykinin”, the “inhibition of the bradykinin-increased release of MMP3 (in words)” value is “inhibited by HOE140 in a dose-dependent manner”. The “MMP-3 release MW (OD 450 nm)” value reads like this: under setting [1], 458 OD 450 nm; under setting [2], 371 OD 450 nm; under setting [3], 309 OD 450 nm; under setting [4], 306 OD 450 nm. Also, the “Relative values based on starting value” by setting is: under setting [1], 139.6; under setting [2], 113.1; under setting [3], 94.2; under setting [4], 93.3.
